Results on nine compounds are retold here after article PMC5738391, “Three classes of ligands each bind to distinct sites on the orphan G protein-coupled receptor GPR84” (Scientific Reports, 2017).

In experiment [1] the target is T1, human GPR84 (FLAG-hGPR84-eYFP) (Homo sapiens, UniProt Q9NQS5).
T1 construct: expressed in transfected cells
The experiment can be described thus: [35S]GTPγS binding, membranes of cells expressing FLAG-hGPR84-eYFP. The experiment is classed as biochemical. As for the experimental part:
(§1) Membranes were generated from Flp-In T-REx HEK293 cells treated with 100 ng/mL doxycycline to induce expression of the receptor construct of interest. Cells were washed with ice-cold phosphate-buffered saline, removed from dishes by scraping and centrifuged at 3000 rpm for 5 min at 4 °C. Pellets were resuspended in TE buffer (10 mM Tris-HCl, 0.1 mM EDTA; pH 7.5) containing a protease inhibitor mixture (Roche Applied Science, West Sussex, UK) and homogenized with a 5 ml hand-held homogenizer. This material was centrifuged at 1500 rpm for 5 min at 4 °C and the supernatant was further centrifuged at 50000 rpm for 45 min at 4 °C. The resulting pellet was resuspended in TE buffer and protein content was assessed using a BCA protein assay kit (Pierce, Fisher Scientific, Loughborough, UK).
(§2) The reaction was then initiated with addition of [^35S]GTPγS (50 nCi per tube), and the reaction was terminated after 45 minutes incubation at 30 °C by rapid filtration through GF/C glass filters using a 24-well Brandel cell harvester (Alpha Biotech, Glasgow, UK). […] Dried filters were added to 3 mL of Ultima Gold^TM XR (PerkinElmer Life Sciences, Beaconsfield, UK) and [^35S]GTPγS binding was determined by liquid scintillation spectrometry.
All data are presented as means ± SEM of at least three independent experiments. Data analysis and curve fitting was carried out using the GraphPad Prism software package version 5.0b (GraphPad, San Diego). […] In case of inhibition experiments with antagonists an equivalent analysis was followed to fit an inverse sigmoidal curve. To perform the statistical analysis of curve parameters, data from multiple experiments were fitted independently and resulting curve fit values were analysed with indicated tests. For radioligand binding data, saturation binding curves were generated by fitting the specific binding, which was obtained by subtracting non-specific from total binding, to a one site specific binding model that allows calculation of Kd values for the radioligand at wild type and mutant receptors. To determine affinity of unlabelled ligands, data obtained in displacement assays were fit to an inverse three parameter sigmoidal curve constrained by radioligand affinity and concentration to allow for Ki calculation.

Experiment [2] concerns the target GPR84-Cys^352Ile Gαi2 fusion protein (Homo sapiens, UniProt Q9NQS5). The experiment can be described thus: [35S]GTPγS binding, membranes expressing pertussis toxin-resistant GPR84-Cys352Ile Gαi2 fusion; operational model of allosteric modulation. The experiment is classed as biochemical. Particulars: for measured potency compared between GPR84-Gαi2 and GPR84-Cys352Ile Gαi2 fusion constructs: [35S]GTPγS binding. As for the experimental part:
The only previous study[3] designed to explore the mode of binding of ligands to GPR84 employed a fusion protein[31],[32] in which the G protein Gαi1 was linked in-frame to the C-terminal tail of GPR84.
as §1, §2
To quantify the extent of allosteric interaction between pairs of ligands, data were analysed using an operational model of allosteric modulation described previously. The general version of this model can be depicted by the following equation: E=Em(τA[A](KB+αβ[B])+τB[B]KA)^n/([A]KB+KAKB+[B]KA+α[A][B])^n+(τA[A](KB+αβ[B])+τB[B]KA)^n where, E is the pharmacological effect, [A] and [B] are the orthosteric and allosteric compound concentrations at equilibrium, respectively; KA and KB are the equilibrium dissociation constants of the orthosteric and allosteric ligands respectively, denoting the binding affinities of the two ligands to the receptor; α is the binding cooperativity factor denoting the magnitude and direction of the allosteric effect on binding affinity of the orthosteric agonist to the receptor, β is the activation cooperativity factor representing the measure of the allosteric effect on orthosteric efficacy. τA and τB represent the intrinsic activity of the orthosteric and allosteric ligand, respectively. Em is the maximal possible system response and n denotes the slope factor of the transducer function. In case of global fitting of the allosterism data through this equation, Em and n values were always constrained and other parameters (KA, KB,τA, τB, α, β) were estimated.

Experiment [3] has as its target T2, Arg^172Ala GPR84-Cys^352Ile Gαi2 fusion protein (Homo sapiens, UniProt Q9NQS5, R172A).
T2 construct: Cys352Ile Gαi2 (fusion partner, same polypeptide); expressed in transfected cells; host or cells: membranes of Flp-In T-REx 293 cells, doxycycline-induced
Kind of experiment: [35S]GTPγS binding, Arg172Ala mutant fusion protein. Format: biochemical. The text has this:
To try to identify how a MCFA might interact with GPR84 we turned to homology modelling studies. Although GPR84 is not closely related to the other GPCRs that respond to either short chain (FFA2, FFA3) or long chain (FFA1, FFA4) fatty acids[8],[9], in each of the other cases the carboxylate of the fatty acid is co-ordinated by one or more arginine residues located at or near the extracellular surface[12]–[14]. […] As we have highlighted recently[9] GPR84 and the β2-adrenoceptor are only distantly related whilst, of the currently available atomic level GPCR structures, the orexin OX1 receptor[34] has highest overall sequence identity (31%) with GPR84. We, therefore, generated and employed a new homology model of GPR84 based on the transmembrane domain architecture of the OX1 receptor (Fig. 6). However, because ECL2 of GPR84 is very similar in sequence to that of rhodopsin (Fig. 6a), with 43% residue identity over this region, we incorporated this knowledge into the modelling process. In the resulting hybrid model (Fig. 6a) Arg^172 within ECL2 is pointing into the potential binding cavity within the helical bundle. This was not the case when Nikaido et al.,[3] employed the β2-adrenoceptor-based model, probably because the ECL2 sequences of the β2-adrenoceptor and GPR84 have no relatedness. […] To assess this we mutated Arg^172 to Ala within the setting of the GPR84-Cys^352Ile Gαi2 fusion protein. […] Equivalent results were obtained in studies in which the Arg^172Ala mutation was introduced into the FLAG-hGPR84-eYFP construct (Fig. 7b).
FLAG-humanGPR84-Gαi2 fusion proteins were constructed by replacing eYFP within the FLAG-humanGPR84-eYFP-pcDNA5/FRT/TO construct with sequence corresponding to Gαi2 or Cys^352Ile Gαi2 using NotI and XhoI restriction enzymes. Site-directed mutagenesis to generate point mutants of GPR84 was performed according to the QuikChange method (Stratagene, Cheshire, UK). The identity of all constructs was verified by nucleotide sequencing.
(§3) Initially, 5 μg of generated membrane protein was pre-incubated for 15 min at 25 °C in assay buffer (20 mM HEPES, 5 mM MgCl2; 160 mM NaCl; 1 μM GDP; 0.05% fatty acid-free bovine serum albumin; pH 7.5) containing the indicated ligand concentrations. […] The reaction was then initiated with addition of [^35S]GTPγS (50 nCi per tube), and the reaction was terminated after 45 minutes incubation at 30 °C by rapid filtration through GF/C glass filters using a 24-well Brandel cell harvester (Alpha Biotech, Glasgow, UK). Unbound radioligand was removed from filters by three washes with ice-cold phosphate buffered saline (pH 7.4) and filters were dried for 2–3 h at room temperature. Dried filters were added to 3 mL of Ultima Gold^TM XR (PerkinElmer Life Sciences, Beaconsfield, UK) and [^35S]GTPγS binding was determined by liquid scintillation spectrometry.
(In general: GTPγS resists hydrolysis and so accumulates on activated G proteins.)

Experiment [4] addresses T3, Arg^172Lys GPR84-Cys^352Ile Gαi2 fusion protein (Homo sapiens, UniProt Q9NQS5, R172K).
T3 construct: Cys352Ile Gαi2 (fusion partner, same polypeptide); expressed in transfected cells; host or cells: membranes of Flp-In T-REx 293 cells, doxycycline-induced
The experiment can be described thus: [35S]GTPγS binding, Arg172Lys mutant fusion protein. Format: biochemical.

The target of experiment [5] is T4, FLAG-Arg^174Ala hGPR84-eYFP (Homo sapiens, UniProt Q9NQS5, R174A).
T4 construct: expressed in transfected cells; host or cells: membranes of Flp-In T-REx 293 cells, doxycycline-induced
Kind of experiment: [35S]GTPγS binding, Arg174Ala mutant receptor. Format: biochemical.

For experiment [6], the system named is GPR84-Gαi2 fusion protein. Kind of experiment: [35S]GTPγS binding, membranes expressing GPR84-Gαi2 fusion protein. Conditions: for direct agonism of GPR84, [35S]GTPγS binding: DIM analogs; for allosteric effect on concentration-response curves of orthosteric agonists incl. compound-1: increasing concentrations of analog. The experiment is classed as biochemical, human.
From the text: The only previous study[3] designed to explore the mode of binding of ligands to GPR84 employed a fusion protein[31],[32] in which the G protein Gαi1 was linked in-frame to the C-terminal tail of GPR84. […] These studies indicate that following pertussis toxin treatment of cells expressing the GPR84-Cys^352Ile Gαi2 fusion protein all agonist-induced binding of [^35S]GTPγS reflects incorporation of nucleotide into the receptor-linked G protein α subunit.
as §1, §3

Where [7] appears, read: agonist compound-1, modulator 3a.
The mark [8] stands for this setting: agonist 3a, modulator compound-1.

Chain of GPR84-Cys^352Ile Gαi2 fusion protein (Q9NQS5 whole entry, the tested form may be a part): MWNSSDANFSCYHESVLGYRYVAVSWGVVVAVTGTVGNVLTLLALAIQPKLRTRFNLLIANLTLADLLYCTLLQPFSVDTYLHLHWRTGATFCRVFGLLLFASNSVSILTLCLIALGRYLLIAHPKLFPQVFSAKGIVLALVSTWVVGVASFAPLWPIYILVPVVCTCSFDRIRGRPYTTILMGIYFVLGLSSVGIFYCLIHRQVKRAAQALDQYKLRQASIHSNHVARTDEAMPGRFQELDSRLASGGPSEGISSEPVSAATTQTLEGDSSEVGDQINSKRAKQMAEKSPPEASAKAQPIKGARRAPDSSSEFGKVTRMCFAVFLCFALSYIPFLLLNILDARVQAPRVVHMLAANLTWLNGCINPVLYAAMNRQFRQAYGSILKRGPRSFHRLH
Chain of GPR84-Cys^352Ile Gαi2 fusion protein (P04899 2-355 C352I, further chain): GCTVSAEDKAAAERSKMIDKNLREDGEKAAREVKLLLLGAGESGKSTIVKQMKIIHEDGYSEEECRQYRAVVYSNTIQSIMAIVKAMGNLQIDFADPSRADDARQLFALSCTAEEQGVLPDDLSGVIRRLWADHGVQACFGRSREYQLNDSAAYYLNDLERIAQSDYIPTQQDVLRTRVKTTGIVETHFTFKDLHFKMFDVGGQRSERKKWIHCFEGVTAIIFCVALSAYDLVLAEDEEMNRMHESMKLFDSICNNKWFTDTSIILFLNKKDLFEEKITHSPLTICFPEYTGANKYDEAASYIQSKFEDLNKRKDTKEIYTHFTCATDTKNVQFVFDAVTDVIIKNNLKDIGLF
T1 sequence (Q9NQS5 whole entry): as the sequence (Q9NQS5 whole entry, the tested form may be a part) above
T2 sequence (Q9NQS5 2-396 R172A): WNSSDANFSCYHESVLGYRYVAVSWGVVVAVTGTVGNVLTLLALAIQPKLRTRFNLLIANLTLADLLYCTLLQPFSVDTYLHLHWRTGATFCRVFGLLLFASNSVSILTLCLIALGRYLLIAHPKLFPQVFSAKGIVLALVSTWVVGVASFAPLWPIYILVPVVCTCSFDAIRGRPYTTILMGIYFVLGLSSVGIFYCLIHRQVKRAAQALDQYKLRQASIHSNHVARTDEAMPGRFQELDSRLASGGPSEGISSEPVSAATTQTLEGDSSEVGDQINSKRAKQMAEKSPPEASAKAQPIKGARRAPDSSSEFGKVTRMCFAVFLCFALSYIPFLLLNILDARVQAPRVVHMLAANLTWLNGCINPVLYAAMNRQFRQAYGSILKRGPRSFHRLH
T4 sequence (Q9NQS5 whole entry R174A): as the sequence (Q9NQS5 whole entry, the tested form may be a part) above, with R174A counted along it
T3 sequence (Q9NQS5 2-396 R172K): as the sequence (Q9NQS5 2-396 R172A) above, with A171K counted along it

For the compound “2-((S)-1-[1,4]dioxan-2-ylmethoxy)-9-(tetrahydro-pyran-4-yl-methoxymethyl)-6,7-dihydro-pyrimido[6,1-a]isoquinolin-4-one [Compound 161]”, the “ability to limit [35S]GTPγS binding induced by EC80 concentrations of C10 (50 μM), embelin (3 μM) and DIM (5 μM)” value in experiment [1] is “in a concentration-dependent fashion”.

For the compound `CCCCCCSc1nc(O)cc(O)n1` [compound-1, 2-(hexylthiol)pyridimine-4,6 diol], the “measured potency compared between GPR84-Gαi2 and GPR84-Cys352Ile Gαi2 fusion constructs” value in experiment [2] was “indistinguishable”. Also, the logα in experiment [2] (setting [7]) came to 1.75 ± 0.05; in experiment [2] (agonist compound-1, modulator DIM, operational model of allosterism), 2.1 ± 0.07. Moreover, the logβ in experiment [2] (setting [7]) is -0.1 ± 0.02; in experiment [2] (agonist compound-1, modulator DIM), -0.2 ± 0.05. In addition, the “agonist response at Arg172Ala mutant” value in experiment [3] is on record as “no response”. Also, the “agonist response at Arg172Lys mutant” value in experiment [4] was “eliminated response”. Also, the “effect of Arg174Ala mutation on agonist function or potency” value in experiment [5] is “did not affect function or potency”.

On to `CCCCCCCCCCCC1=C(O)C(=O)C=C(O)C1=O` [embelin, 2,5-dihydroxy-3-undecyl-2,5-cyclohexadiene-1,4-dione], for which the “measured potency compared between GPR84-Gαi2 and GPR84-Cys352Ile Gαi2 fusion constructs” value in experiment [2] was “indistinguishable”. In experiment [2] (agonist embelin, modulator DIM), this compound showed a logα of 1.22 ± 0.05 and a logβ of 0.8 ± 0.02. Besides, in experiment [3], the “agonist response at Arg172Ala mutant” value was “no response”. Further, in experiment [4], the “agonist response at Arg172Lys mutant” value is given as “eliminated response”. In addition, the “effect of Arg174Ala mutation on agonist function or potency” value in experiment [5] was “did not affect function or potency”.

For the compound `COc1ccc2[nH]cc(C(c3ccc(C)cc3)c3c[nH]c4ccc(OC)cc34)c2c1` [3b], in experiment [6], the “direct agonism of GPR84, [35S]GTPγS binding” value (from here on “direct agonism of GPR84”) is “inactive”.

Take `O=[N+]([O-])c1ccc2[nH]cc(Cc3c[nH]c4ccc([N+](=O)[O-])cc34)c2c1` [6a]: the “direct agonism of GPR84” value in experiment [6] is “direct agonism”.

In experiment [2] (setting [8]), `COc1ccc2[nH]cc(Cc3c[nH]c4ccc(OC)cc34)c2c1` [3a] yielded a logα of 1.43 ± 0.08 and a logβ of 1.2 ± 0.06. For the same compound, the Kd in experiment [2] (pKA (estimated for the agonist), agonist 3a, modulator compound-1) is 14.8 µM. Besides, the Kb in experiment [2] (pKB (estimated for the modulator), modulator 3a, agonist compound-1) is 10 µM. Moreover, in experiment [6], the “direct agonism of GPR84” value was “direct agonism” and the “allosteric effect on concentration-response curves of orthosteric agonists incl. compound-1” value is recorded as “as large positive allosteric effects on the potency of the orthosteric agonist ligands as did DIM”.

With `CCCCCCCCCC(=O)OC` [methyl decanoate], the “agonist activity, [35S]GTPγS binding” value in experiment [1] (membranes of doxycycline-induced cells) is “completely inactive”.

As for `O=c1nc(OCC2COCCO2)cc2n1CCc1cc(C#CCNc3ccccc3)ccc1-2` (stereo not shown) [Compound 107, 2-([1,4]dioxan-2-ylmethoxy)-9-(3-phenylamino-prop-1-ynyl)-6,7-dihydro-pyrimido[6,1-a]isoquinolin-4-one], the “ability to limit [35S]GTPγS binding induced by EC80 concentrations of C10 (50 μM), embelin (3 μM) and DIM (5 μM)” value in experiment [1] is recorded as “more potent than 161”. Besides, the “mode of blockade of DIM agonism” value in experiment [1] (higher antagonist concentrations reduced maximal effect of DIM) is given as “non-competitive mode of blockade”. Also, the “mode of blockade of embelin effects” value in experiment [1] (increasing concentrations of antagonist decreased maximal effect of embelin) is reported as “non-competitive manner”. Also, the “potency to block DIM-stimulated [35S]GTPγS binding, Arg172Ala versus GPR84-Cys352Ile Gαi2 fusion” value in experiment [3] is “equal potency”.

Regarding `COc1ccc2[nH]cc(C(c3cc(F)cc(F)c3)c3c[nH]c4ccc(OC)cc34)c2c1` [3c], in experiment [6], the “affinity for GPR84 (words, inferred from functional data)” value is listed as “lack affinity”; the “direct agonism of GPR84” value was “inactive”; the “allosteric effect on concentration-response curves of orthosteric agonists incl. compound-1” value is recorded as “unable to effect the position of the concentration-response curves”.

What is called Kd is the constant that tells how readily two partners part at equilibrium.
